Reference: US6818203B2, “Use of perfluoroalkyl-containing metal complexes as contrast media in MR-imaging for visualization of plaque, tumors and necroses” (Schering Aktiengesellschaft, priority 2000, dated 2004)
Several values for one entry are separate records, joined by “and”; a condition that tells them apart may be missing. Identical values can stand only once.

Key:
[1] = in vivo; cited from earlier work
[2] = critical micelle formation concentration (CMC) by tensiometry; format: physicochemical
Method: In aqueous systems, these amphiphilic molecules show the properties that are characteristic of standard surfactants (such as, e.g., sodium dodecylsulfate, SDS). They thus reduce the surface tension of water. By tensiometry, the so-called CMC (critical micelle formation concentration in mol/l) can be determined. In this respect, the surface tension is determined based on the concentration of the substance to be measured. The CMC can be calculated from the plot of the surface tension function (c) that is obtained. The critical micelle formation concentration of the compounds according to the invention must be <10^−3 mol/l, preferably <10^−4 mol/l.
(§1) Both the determination of the CMC and the photon correlation spectroscopy are described in H.-D. Dörfler, “Grenzflächen- und Kolloidchemie [Interface and Colloid Chemistry],” Weinheim, New York, Basel, Cambridge, Tokyo, VSH 1994.

[3] = hydrodynamic micelle diameter (2 Rh) by photon correlation spectroscopy (PCS); format: physicochemical
Source text: The amphiphilic compounds according to the invention are combined in solution and are present as aggregates. The size (2 Rh) of such aggregates (e.g., micelles, rods, wafers, etc.) can be determined with the aid of […] (PCS).
As a second criterion, the hydrodynamic micelle diameter 2 Rh, which must be >1 nm, is therefore used. Those perfluoroalkyl-containing metal complexes according to the invention whose 2 RH is ≧3, quite especially preferably >4 nm, are especially suitable.
as §1

[4] = proton relaxivity in plasma (R^1), Minispec P 20; format: physicochemical; conditions: 40° C., 0.47 tesla, bovine plasma
Method: As a third criterion, the proton-relaxivity in plasma (R^1) at 40° C. and a field strength of 0.47 tesla is used. The relaxivity, which is indicated in [l/mmol·s], is the quantitative measurement for the shortening of relaxation time T^1 of the protons. For the purpose according to the invention, the relaxivity must be as high as possible and >10 l/mmol·s, preferably >13 l/mmol·s, especially preferably >15 l/mmol·s.
Relaxivity R^1 [l/mmol·s] of the MR-contrast media according to the invention was determined with the Minispec P 20 device of the Bruker Company. The measurements were taken at 40° C. and a field strength of 0.47 tesla. Eight measuring points were recorded by each T1-sequence: 180°-TI-90°, inversion recovery. As a medium, bovine plasma of the Kraeber Company was used. The contrast medium concentrations [mmol/l] in the batches were between 0.30 and 1.16.

myocardial infarction = experiment: infarction visualization (MRT) after intravenous administration in rats with acutely induced myocardial infarction; format: in vivo; conditions: 24 hours after i.v. 100 μmol of Gd/kg
Source text: The successful induction of an acute myocardial infarction was confirmed by means of NBT-staining.

iliac lymph nodes = experiment: lymph node visualization (MRT) after intravenous administration in VX2-tumor-bearing rabbits; format: in vivo
Method: The pictures of FIG. 6 show MR images of an iliac lymph node and of a primary tumor (VX2-tumor implanted i.m.) precontrast, 60 minutes and 20 hours after intravenous administration of 100 μmol of Gd/kg of body weight of metal complex I in rabbits. […] The enhancement in the healthy lymph node tissue was 382% at the time of 15 minutes p.i. and 419% at the time of 60 minutes p.i. […] The ratio of signal intensities of healthy lymph node tissue to metastasis was 3.0 at the time of 15 minutes p.i. and 3.4 at the time of 60 minutes p.i. […] The enhancement in the healthy lymph node tissue was 246% at the time of 15 minutes p.i. and 282% at the time of 60 minutes p.i. […] The ratio of signal intensities of healthy lymph node tissue to metastasis was 2.5 at the time of 15 minutes p.i. and 1.7 at the time of 60 minutes p.i. […] The enhancement in the healthy lymph node tissue was 297% at the time of 10 minutes p.i. and 269% at the time of 60 minutes p.i. […] The ratio of signal intensities of healthy lymph node tissue to metastasis was 5.1 at the time of 10 minutes p.i. and 1.9 at the time of 60 minutes p.i. […] The enhancement in the healthy lymph node tissue was 195% at the time of 15 minutes p.i. and 233% at the time of 60 minutes p.i. […] The ratio of signal intensities of healthy lymph node tissue to metastasis was 1.9 at the time of 15 minutes p.i. and 1.8 at the time of 60 minutes p.i.

[5] = test system: primary tumor (VX2-tumor implanted i.m.); experiment: tumor visualization (MRT) after intravenous administration in VX2-tumor-bearing rabbits; format: in vivo
Method: The pictures of FIG. 6 show MR images of an iliac lymph node and of a primary tumor (VX2-tumor implanted i.m.) precontrast, 60 minutes and 20 hours after intravenous administration of 100 μmol of Gd/kg of body weight of metal complex I in rabbits. […]

arteriosclerotic plaque = experiment: MRT-visualization of arteriosclerotic plaque after intravenous administration; format: in vivo, Watanabe rabbits
Source text: Based on the contrast between the plaque with strong signals and the healthy vessel wall with little or no signals, a diagnosis of the arteriosclerotic vessel wall changes was possible.
The localization of the plaque, especially in aortic arches and in vascular passages, was confirmed by means of Sudan-III-staining.
The localization of the plaque, especially in aortic arches as well as in vascular passages, was confirmed by means of Sudan-III-staining. Then, the MR-imaging of the agar-embedded preparation was again examined with a T1-weighted gradientecho sequence (MPRage; 1.5 T; TR 11.1 ms, TE 4.3 ms, 15° flip angle α; NA: 2; matrix: 213*256) and a spin-echo sequence (1.5 T; TR: 400 ms, TE: 15 ms; NA: 16; matrix: 256*256) (post mortem image).

infarcted tissue = conditions: cited from earlier work
[6] = 24 hours after contrast medium administration, 200 μmol of Gd/kg i.v.

## O=S(=O)([O-])c1ccc(-c2c3nc(c(-c4ccc(S(=O)(=O)[O-])cc4)c4ccc([nH]4)c(-c4ccc(S(=O)(=O)[O-])cc4)c4nc(c(-c5ccc(S(=O)(=O)[O-])cc5)c5ccc2[nH]5)C=C4)C=C3)cc1.[Mn+4] [Mn-TPPS, manganese-5,10,15,20-tetrakis(4-sulfonatophenyl)-porphyrin]
[1]
  LD50: approximately 0.5 mmol/kg
  dose at which an action starts: 0.2 mmol/kg

## CC(C(=O)NCC(=O)N1CCN(S(=O)(=O)C(F)(F)C(F)(F)C(F)(F)C(F)(F)C(F)(F)C(F)(F)C(F)(F)C(F)(F)F)CC1)N1CCN(CC(=O)[O-])CCN(CC(=O)[O-])CCN(CC(=O)[O-])CC1.[Gd+3] (centres unmarked) [metal complex I, Gadolinium complex of 10-[1-methyl-2-oxo-3-aza-5-oxo-{4-perfluorooctyl-sulfonyl-piperazin-1-yl}-pentyl]-1,4,7-tris(carboxymethyl)-1,4,7,10-tetraazacyclododecane]
[2]
  CMC (critical micelle formation concentration): 1.86e-06 mol/L
[3]
  2 Rh (hydrodynamic micelle diameter): 4.6 nm
[4]
  R^1 Plasma (relaxivity): 35.7 mmol⁻¹ s⁻¹
Myocardial infarction
  signal in the infarction area (T1-weighted spin-echo images): strong signal rise
Iliac lymph nodes; 100 μmol of Gd/kg i.v., 60 minutes and 20 hours
  signal in healthy lymph node tissue (T1-weighted gradient-echo images): strong signal rise
[5]; 60 minutes p.i., 100 μmol of Gd/kg i.v.
  enhancement of the primary tumor (especially the periphery): considerable enhancement
[5]; 20 hours p.i., 100 μmol of Gd/kg i.v.
  course of the signal rise of the primary tumor: propagated in the more central region of the tumor
[5]; late images, 100 μmol of Gd/kg i.v.
  enhancement of a pathological structure (optionally secondary tumor or necrosis) on the contralateral side: late enhancement

## CC(C(=O)NCC(=O)NCCCC[C@H](NC(=O)CO[C@H]1O[C@H](CO)[C@@H](O)[C@H](O)[C@@H]1O)C(=O)N1CCN(S(=O)(=O)C(F)(F)C(F)(F)C(F)(F)C(F)(F)C(F)(F)C(F)(F)C(F)(F)C(F)(F)F)CC1)N1CCN(CC(=O)[O-])CCN(CC(=O)[O-])CCN(CC(=O)[O-])CC1.[Gd+3] (stereo partly drawn) [metal complex XV, 6-N-[1,4,7-Tris(carboxylatomethyl)-1,4,7,10-tetraazacyclododecane-10-N-(pentanoyl-3-aza-4-oxo-5-methyl-5-yl)]-2-N-[1-O-α-D-carbonylmethyl-mannopyranose]-L-lysine-[1-(4-perfluorooctylsulfonyl)-piperazine]-amide, Gd complex]
[2]
  CMC (critical micelle formation concentration): 2.5e-06 mol/L
[3]
  2 Rh (hydrodynamic micelle diameter): 4.4 nm
[4]
  R^1 Plasma (relaxivity): 15.9 mmol⁻¹ s⁻¹
Arteriosclerotic plaque; 35 minutes, 60 minutes and 24 hours after i.v. 10 μmol of Gd/kg
  signal in arteriosclerotic plaque (MR images of the aorta): strong signal rise
Arteriosclerotic plaque; 24 hours and 48 hours after i.v. 25 μmol of Gd/kg
  signal in the arteriosclerotic plaque (MR images of the aorta): strong signal rise
Arteriosclerotic plaque; post mortem image of the agar-embedded preparation, 10 μmol of Gd/kg i.v.
  correlation of the aortic sections with strong signal rise and Sudan-III stained plaque: excellent correlation
Myocardial infarction
  signal in the infarction area (T1-weighted spin-echo images): strong signal rise
Iliac lymph nodes; 200 μmol of Gd/kg i.v.
  signal in healthy lymph node tissue (T1-weighted gradient-echo images): strong signal rise
Iliac lymph nodes; [6]
  signal in the metastasis, late: considerable signal rise
  signal rise in healthy lymph node tissue, late: reduced
Iliac lymph nodes; early images, 200 μmol of Gd/kg i.v.
  signal in zones within the lymph node diagnosed as metastases (confirmed histologically): without signal rise
[5]; 24 hours p.i., 200 μmol of Gd/kg i.v.
  course of the enhancement of the primary tumor: propagates out from the center of the tumor
[5]; immediately after administration, 200 μmol of Gd/kg i.v.
  enhancement of the primary tumor (especially the periphery): considerable enhancement

## gadolinium-mesoporphyrin [Gd-MP]
Infarcted tissue; infarcted kidney and myocardium (both cases)
  ratio of the signal intensities during MRI for infarcted tissue in comparison to healthy tissue: 2.10 and 2.19
Infarcted tissue; kidney (Example 3 of WO 95/31219)
  metal content of the infarcted organ compared with non-infarcted: as high as that of the non-infarcted organ
Infarcted tissue; myocardium (Example 1 of WO 95/31219)
  metal content in the infarcted tissue compared with non-infarcted: nine times as high
